Values of other authors in US20100234277A1, “COADMINISTRATION OF ALPHA-FETOPROTEIN AND A DISEASE MODIFYING ANTI-RHEUMATIC DRUG FOR TREATING INFLAMMATORY ARTHRITIC DISEASE” (priority 2006, published 2010).

Conditions: in vivo

## CN(Cc1cnc2nc(N)nc(N)c2n1)c1ccc(C(=O)N[C@@H](CCC(=O)O)C(=O)O)cc1 [methotrexate, N-[4-[[(2,4-diamino-6-pteridinyl)methyl]methylamino]benzoyl]-L-glutamic acid]
  individuals with rheumatoid arthritis (RA) that respond favorably to treatment: Approximately 70%
